For data set [1], the system named is black soldier fly larvae. To be noted: Example 3, bean pulp/bran/grass meal 3:5:2 feed, 6-day-old larvae. The protocol:
(§1) After the feeding was terminated, the obtained larvae were screened, washed, wiped dry and weighed. The survival rate was calculated according to the number of live larvae. The larvae were subjected to starvation for 1 day, then dried and weighed. The residual feed was also dried and weighed. Thereby, bioconversion efficiency was calculated according to the following: bioconversion efficiency=dry weight of the larvae/(dry weight of the added feed−dry weight of the residual feed)×100%. Selenium content in the larva was determined after smashing the dry larvae according to “GB5009.93-2017 Determination of Selenium in Food”.
Effects of the selenium-rich bacteria solution on breeding of the selenium-rich black soldier flies were determined according to the indicators, i.e. growth performance of the larvae (survival rate, larva weight), bioconversion efficiency, and selenium content in the larva. The test method for each indicator was the same as that in Example 2.

For data set [2], the system named is black soldier fly larvae. To be noted: Example 5, bean pulp/bran/grass meal 3:5:2 feed, 6-day-old larvae. On the procedure:
as §1
The effects of the selenium-rich bacteria solution on breeding of the selenium-rich black soldier flies were determined according to the indicators, i.e. growth performance of the larvae (survival rate, larva weight), bioconversion efficiency, and selenium content in the larva. Test method for each indicator was the same as that in Example 2.

The test system of data set [3] is black soldier fly larvae. As to conditions: Example 2, chicken feed, 4-day-old larvae. On the procedure:
Step 3, 4-day-old black soldier fly larvae were selected to be fed; the selenium-rich bacteria solution was added to chicken feed to enable the chicken feed to have a total selenium content of 100, 200, 300 mg/kg (wet weight), respectively; a moisture content of the chicken feed was controlled to 60%, then the black soldier fly larvae were fed with the chicken feed at a ratio of dry chicken feed to larva being 116 g per 150 larvae (the ratio of dry feed to larva was 0.77) in conditions of 28° C.-30° C. feeding temperature and 60%-70% air humidity level, and feeding was terminated at the end of the fifth instar of the larvae.
The effects of the selenium-rich bacteria solution on breeding of the selenium-rich black soldier flies were determined according to the indicators, i.e. growth performance of the larvae (survival rate, larva weight), bioconversion efficiency, and selenium content in the larva.
as §1

The test system of data set [4] is black soldier fly larvae. To be noted: Example 4, bean pulp/bran/grass meal 3:5:2 feed, 6-day-old larvae. On the procedure:
as §1
Effects of the selenium-rich bacteria solution on breeding of the selenium-rich black soldier flies were determined according to the indicators, i.e. growth performance of the larvae (survival rate, larva weight), bioconversion efficiency, and selenium content in the larva. Test method for each indicator was the same as that in Example 2.

[5] abbreviates: selenium content added 100.00 mg/kg.
Setting [6] is: selenium content added 200.00 mg/kg.
Setting [7] is: selenium content added 300.00 mg/kg.

The structures appear in SMILES notation. Like-named read-outs stand apart in the source and are kept apart here.

As to `O=[Se](O)O` [sodium selenite], the Larva weight is on record as 179.63 ± 9.99 mg per larva with black soldier fly larvae [1] (setting [5]); 154.41 ± 10.66 mg per larva in the data set on black soldier fly larvae [1] (setting [6]); 119.53 ± 10.79 mg per larva with black soldier fly larvae [1] (setting [7]); 179.95 ± 9.51 mg per larva with black soldier fly larvae [2] (setting [5]); 153.34 ± 10.87 mg per larva with black soldier fly larvae [2] (setting [6]); 119.64 ± 5.54 mg per larva in the data set with black soldier fly larvae [2] (setting [7]). The Larva weight with black soldier fly larvae [3] (setting [5]) was determined as 212.39 ± 9.63 mg per larva; in the data set on black soldier fly larvae [3] (setting [6]), 214.37 ± 7.56 mg per larva; in the data set on black soldier fly larvae [3] (setting [7]) it was 210.57 ± 3.50 mg per larva; in the data set on black soldier fly larvae [4] (setting [5]), 183.72 ± 9.71 mg per larva; with black soldier fly larvae [4] (setting [6]), 156.56 ± 11.10 mg per larva; in the data set with black soldier fly larvae [4] (setting [7]), 122.15 ± 5.66 mg per larva. The Survival rate in the data set on black soldier fly larvae [1] (setting [5]) came out at 85.04 ± 8.77%; with black soldier fly larvae [1] (setting [6]), 84.51 ± 5.06%; in the data set on black soldier fly larvae [1] (setting [7]) it was 82.22 ± 8.77%; in the data set with black soldier fly larvae [2] (setting [5]), 85.33 ± 6.40%; in the data set on black soldier fly larvae [2] (setting [6]) it was 87.43 ± 3.33%; with black soldier fly larvae [2] (setting [7]), 81.46 ± 0.96%. Moreover, the Survival rate in the data set with black soldier fly larvae [3] (setting [6]) was 94.22 ± 1.35%; in the data set with black soldier fly larvae [3] (setting [7]) it was 91.33 ± 4.27%; with black soldier fly larvae [4] (setting [5]), 87.12 ± 6.53%; with black soldier fly larvae [4] (setting [6]), 89.27 ± 3.40%; in the data set on black soldier fly larvae [4] (setting [7]), 83.17 ± 0.97%.

(Values after patent US20250221431A1, “METHOD FOR FEEDING BLACK SOLDIER FLY LARVAE WITH SELENIUM-RICH BACTERIA SOLUTION” (priority 2024, published 2025).)
